In ChEMBL document CHEMBL1268857, “Dolabellane Diterpenoids from the South Atlantic Gorgonian Convexella magelhaenica” (J Nat Prod, 2010):

Assays:
[1] = Cytotoxicity against mouse LM3 cells; assay type: functional, cell-based
PANC-1 = test: Cytotoxicity against human PANC1 cells; assay type: functional, cell-based

SMILES	IC50 [1] [µM]	IC50 (PANC-1) [µM]
C=C(C)[C@@H]1[C@@H](OC(C)=O)C[C@]2(C)[C@H](OC(C)=O)/C=C(\C)CC/C=C(\C)C(=O)C[C@@H]12	17.8	398
C=C(C)[C@@H]1CC[C@]2(C)C/C=C(\C)CC/C=C(\C)C(=O)C[C@@H]12	2.5	39.8
